{"source": "patent US20250009763A1", "about": "“METHODS FOR EXTENDING LIFESPAN AND/OR DELAYING AGING” (priority 2023, published 2025)", "key": {"yeast MEP strain ZHY2": {"tested_on": "yeast MEP strain ZHY2", "experiment": "Mother enrichment program (MEP) assay", "assay_type": "cell-based, Saccharomyces cerevisiae", "conditions": "0-100 μM PN6, particularly above 10 μM; FIGS. 1A-1D", "experimental": "The MEP strain ZHY2 cells were cultured at 30° C. overnight in liquid yeast 5 extract peptone dextrose (YEPD) medium containing 0, 0.1, 0.5, 2, 10, 25, 50, or 100 μM PN6, and the cultures were diluted to A600=0.25 and recovered to the log phase. Cultures were counted and inoculated in culture tubes at a cell density of 2×10^3 cells/ml. Estradiol was added to the mixtures to achieve a final concentration of 1 μM, and the mixtures were incubated in a roller drum at 50 rpm and 30° C. for 60 hours. Each group was monitored by harvesting samples at the indicated time points. The collected samples were washed and plated in solid YEPD media without estradiol, and the viability is reported as CFUs per 500 μl. The software OpenCFU 3.8 was used to calculate colonies."}, "[1]": {"tested_on": "intracellular NAD^+ of WT yeast cells (BY4741)", "experiment": "Intracellular NAD^+ content", "assay_type": "cell-based, Saccharomyces cerevisiae", "conditions": "25 μM, 2 hours; FIG. 2B", "experimental": "WT yeast cells (BY4741; […] per group) were incubated in the presence of DMSO (control) or PN6 (25 μM), or cultured in YEPD medium adjusted to CR 0.1%, for 2 hours, before being harvested. The harvested cells were extracted with 250 μl of 1 M glacial formic acid saturated with butanol, incubated for 30 minutes on ice. Then, 62.5 μl of 100% trichloroacetic acid (TCA) (w/v) was added to each sample, and the samples were incubated on ice for an additional 15 minutes. The samples were pelleted by centrifugation at 17,000×g and 4° C. for 5 minutes, and the supernatant was transferred to another eppendorf tube. […]\nFor analysis, each supernatant or standard sample was divided into two sets: the control set and the test set (150 μl per set), each of which was assembled with an alcohol dehydrogenase (ADH) reaction buffer (345 μl, containing 360 mM Tris (pH 9.7), 240 mM lysine, 0.24% (v/v) EtOH). […] After incubation at room temperature for 10 minutes, the absorbance at 340 nm of each sample was measured by a microplate reader. To determine the NAD^+ levels in each supernatant or standard sample, the absorbance values of the test set (the ADH catalytic set) were divided by the corresponding values of the control set (the water set), which represented the basal NADH levels."}, "aged C57BL/6J mice [2]": {"tested_on": "aged C57BL/6J mice", "experiment": "Intraperitoneal insulin tolerance test (IpITT)", "assay_type": "in vivo, mouse", "conditions": "107 weeks of age, versus SD; FIGS. 4J-4K", "experimental": "The male C57BL/6J mice, aged 107 weeks, were fasted for […] while having free access to water, and their body weights were measured before the test started. The test was conducted by fasting the mice for 5 hours, and then injecting them with 1.25 U/kg of human recombinant insulin. Blood droplets were collected from the tail vein just prior to the insulin injection (time 0; baseline), and at 15, 30, 60, and 90 minutes following the injection. Blood glucose levels were measured using a blood glucose meter (Accu-Chek Guide; Roche, DE)."}, "aged C57BL/6J mice [3]": {"tested_on": "aged C57BL/6J mice", "experiment": "Visible changes in appearance of aged mice", "assay_type": "in vivo, mouse", "conditions": "chow containing 50 mg/kg PN6", "experimental": "All animal procedures were conducted under protocols (Protocol #CGU108-134) that complied with relevant regulations and approved by Research Guidelines for the Care and Use of Laboratory Animals, Chang Guan University. Male C57BL/6J male mice (at 34 weeks of age) obtained from National Laboratory Animal Center (NLAC) were maintained at 23±1° C. and at humidity of 45-70% with a 12 hour dark/light cycle (7:00 am/pm lights on/off). After reaching 50 weeks of age, the mice were randomly divided into two groups: Group I (SD), fed a standard rodent chow (n=27); and Group II (PN6), fed a standard rodent chow containing 50 mg/kg PN6 (n=10). Animals had ad libitum access to food and water throughout the study (the mice were sacrificed at 131 weeks of age), during which their body weight and food intake were measured weekly."}, "aged C57BL/6J mice [4]": {"tested_on": "aged C57BL/6J mice", "experiment": "Glucose tolerance", "assay_type": "in vivo, mouse", "conditions": "between the two treatment groups; data not shown"}, "p21": {"tested_on": "p21", "experiment": "p21 expression in HUVECs, western blot", "assay_type": "cell-based, human", "conditions": "HUVECs at PDL11, 1 or 2 μM; FIG. 3B", "experimental": "For the population doubling (PD) assay, HUVECs (1×10^5 cells/3.5 cm dish) were propagated in the presence of DMSO (i.e., control) or PN6 (1 or 2 μM) until senescence (Day 41), and the cell numbers in each passage were recorded to generate a growth curve that represented the cumulative population doubling. The population doubling levels (PDLs) of HUVECs were calculated in every culture to indicate the proliferation capacity of HUVECs under the respective conditions. The population doublings (PDs) were estimated using the equation: PDL=3.32 (log (total viable cells at harvest/total viable cells at seeding). Also, HUVECs at passages PDL4 and PDL11 cultured in 0 μM (i.e., DMSO alone), 1 μM, or 2 μM PN6 were harvested for further analyses (e.g., western blot and SA-β-gal staining).\nCells were harvested with a 1.25× Laemmli buffer and lysed in RIPA lysis buffer containing 1% of Triton X-100 and a protease inhibitor cocktail, and total protein concentrations were measured with a protein assay kit. Proteins in the samples of the lysates with the same amounts of total protein were separated by sodium dodecyl sulfate polyacrylamide gel electrophoresis (SDS-PAGE) (10% polyacrylamide gels) and analyzed by immunoblotting. […] Protein quantification was performed by software."}}}
{"smiles": "CCC(CC[C@@H](C)C1CCC2C3CC(=O)[C@H]4C[C@@H](O)CC[C@]4(C)C3CC[C@@]21C)C(C)C", "note": "(stereo in doubt) [PN6, (24S)-3β-hydroxy-5α-stigmastan-6-one]", "values": [{"measurement": "viability of yeast ZHY2", "setting": "yeast MEP strain ZHY2", "result": "increased proportionally with the concentration of PN6"}, {"measurement": "NAD^+ content of yeast", "setting": "[1]", "result": "significantly increased"}, {"measurement": "insulin sensitivity", "setting": "aged C57BL/6J mice [2]", "result": "significantly higher"}, {"measurement": "Hair graying", "setting": "aged C57BL/6J mice [3]", "result": 25, "unit": "%"}, {"measurement": "Kyphosis", "setting": "aged C57BL/6J mice [3]", "result": 13, "unit": "%"}, {"measurement": "Muscle weakness", "setting": "aged C57BL/6J mice [3]", "result": 13, "unit": "%"}, {"measurement": "glucose tolerance", "setting": "aged C57BL/6J mice [4]", "result": "no significant differences"}, {"measurement": "p21 expression level", "setting": "p21", "result": "decreased dose-dependently"}]}
